Series [1] deals with D. melanogaster w^1118 females. The following applies: in vivo. On the procedure: (§1) All experiments were conducted with D. melanogaster w^1118 females (Bloomington Drosophila Stock Center) kept at consistent conditions at 25° C., 55% humidity, and ambient light. […] Flies were transferred to new vials every other day. […] These solutions were prepared fresh before each batch of media preparation and were added to warmed, liquefied standard fly food (prepared with agar, cornmeal, sucrose and yeast) and mixed thoroughly prior to pouring into vials. Food was prepared fresh at least monthly.

For series [2] the following is noted: in vivo; cited from earlier work.
Series [3] has as its system D. melanogaster w^1118 females. As to the method:
as §1
Flies were followed according to the same protocol, counting dead flies daily until all were dead. Survival data were plotted using Kaplan Meier survival analysis^17, mean and median survival times were calculated, and the differences between the survival curves were tested using log rank statistics in SPSS.

Series [4] relates to CG14691. The class given is in vivo, D. melanogaster. The following applies: 5 mM paraquat for six days, compared to untreated flies. As to the method: as §1
[5] abbreviates: 5 mM paraquat, nicotine 0 mg/ml.

Like-named read-outs stand apart in the source and are kept apart here.

For `CN1CCC[C@H]1c1cccnc1` [nicotine, 1-methyl-2-(3-pyridyl)pyrrolidone], the effect on survival entry in series [1] is given as “did not have a notable effect on survival”. Also, the Oral bioavailability entry in series [2] is “about 30%”. In series [3] (in vivo), the “Nicotine restored survival of paraquat-treated flies” value was not above 25%, the effect on survival result was “beneficial effect” and the “improvement of survival of paraquat-treated flies” value was “up to 25%”.
Take `C[n+]1ccc(-c2cc[n+](C)cc2)cc1` [paraquat, Methyl viologen dichloride hydrate]: in series [4], the “rise in CG14691 expression” value was found to be 8%. This compound returned a shortening of lifespan in series [3] (5 mM paraquat vs untreated flies) of 63%. Further, in series [3] (setting [5]), the “Mean survival Days ± SE” value was found to be 14.0 ± 0.4 days and the “Median survival Days ± SE” value came to 16 ± 0.5 days. Also, the “Reduction of median survival by paraquat” value in series [3] (in vivo) is reported as “Paraquat reduced median survival by 63%”.

(Values after patent publication US20130324503A1, “Method of identifying and treating a person having a predisposition to or afflicted with Parkinson disease” (Health Research Inc., priority 2010, published 2013).)
